Data from patent US5817840A, “Water soluble taxol derivatives” (The Scripps Research Institute, priority 1997, dated 1998).
≈ marks a conversion by molar mass, not a printed value. Like-named read-outs stand apart in the source and are kept apart here. One block for each compound: values may come before it.

Columns and labels:
[1] = Taxol release from protaxols in aqueous buffer; assay type: physicochemical; settings: aqueous buffer
Protocol: The derivatives in which the C-7 hydroxyl group was acetylated were extremely unstable in aqueous media losing the C-7 substituent very rapidly. The stability of the synthesized compounds was examined at various pH's and temperatures. […] Table 1A includes the half-lives of six of these compounds at pH 7.5 and 9. […] This illustrates the ability to fine-tune the rate of release of taxol to a desired set of conditions using simple chemical principles.
Protaxol 5 was dissolved in dimethylsulphoxide (DMSO) at 25° C. and immediately added to the appropriate phosphate buffer solution at the specified temperature. Aliquots were analysed using a Waters Maxima system HPLC instrument equipped with auto-injector (3.9×300 mm C18 column equipped with a precolumn; flow rate, 1.5 ml min^-1; eluant, gradient A-B, where A is 80% 100 mM ammonium acetate, buffer pH 6.0, and B is 100% methanol; ultraviolet detector). The per cent taxol released was determined from the relative areas of the peaks corresponding to protaxol 5 and taxol (the conversion was clean, and it was assumed that the two compounds have equal molar extinction coefficients).

[2] = Water solubility in D2O by 1H NMR; settings: d2o
Protocol: The solubilities of the synthesized protaxols in D2 O were determined by 1H NMR spectroscopy.
The resulting mixture was centrifuged for 20 minutes and the supernatant saturated solution was analysed by ^1 H NMR spectroscopy using a Bruker AMX-400 instrument and methanol or pyridine as internal standard. The concentration of the compound was determined by comparing several signals with the CH3 signal of methanol or the NCH signal of pyridine.

Capan-1 (pancreatic) = test: Cytotoxicity (sulphorhodamine B), cancer cell line, Table 1B; assay type: cell-based; settings: Homo sapiens
Protocol: (§1) The cytotoxicities were determined using the sulphorhodamine B assay method (Skehan, P. et al. J. Nat. Canc. Inst. 82, 1107 (1990)).

NHDF (normal human skin) = test: Cytotoxicity (sulphorhodamine B), normal cell line, Table 1B; assay type: cell-based
[3] = tested on: CHO (normal human mammary); test: as above; assay type: cell-based
[4] = tested on: BT-549 (breast carcinoma); test: Cytotoxicity (sulphorhodamine B), cancer cell line, Table 1B; assay type: cell-based; settings: Homo sapiens
Protocol: as §1

[5] = tested on: UCLA-P-3 (lung carcinoma); test: as above; assay type: cell-based; settings: Homo sapiens
Protocol: as §1

[6] = tested on: BALB/c 3T3 (normal mouse embryo); test: Cytotoxicity (sulphorhodamine B), normal cell line, Table 1B; assay type: cell-based
Protocol: as §1

[7] = tested on: PC-3 (prostate carcinoma); test: Cytotoxicity (sulphorhodamine B), cancer cell line, Table 1B; assay type: cell-based; settings: Homo sapiens
Protocol: as §1

[8] = tested on: 786-0 (renal cell carcinoma); test: as above; assay type: cell-based; settings: Homo sapiens
Protocol: as §1

L1210 (mouse leukaemia) = test: as above; assay type: cell-based
Protocol: as §1

[9] = tested on: CHO (Chinese hamster ovary); test: Cytotoxicity (sulphorhodamine B), normal cell line, Table 1B; assay type: cell-based; settings: Cricetulus griseus
Protocol: as §1

SK (melanoma) = test: Cytotoxicity (sulphorhodamine B), cancer cell line, Table 1B; assay type: cell-based
Protocol: as §1

HT-29 (colon carcinoma) = test: as above; assay type: cell-based; settings: Homo sapiens
Protocol: as §1

SIHA (cervix carcinoma) = test: as above; assay type: cell-based; settings: Homo sapiens
Protocol: as §1

H322 (lung carcinoma) = test: as above; assay type: cell-based
Protocol: as §1

MCF-7 (breast carcinoma) = test: as above; assay type: cell-based; settings: Homo sapiens
Protocol: as §1

[10] = tested on: MOLT-4 (T-cell leukaemia); test: as above; assay type: cell-based; settings: Homo sapiens
Protocol: as §1

[11] = tested on: RPMI-7666 (normal human PBLs); test: Cytotoxicity (sulphorhodamine B), normal cell line, Table 1B; assay type: cell-based
Protocol: as §1

[12] = tested on: HL-60 (promyel carcinoma); test: Cytotoxicity (sulphorhodamine B), cancer cell line, Table 1B; assay type: cell-based; settings: Homo sapiens
Protocol: as §1

[13] = tested on: OVCAR-3 (ovarian carcinoma); test: as above; assay type: cell-based; settings: Homo sapiens, OVCAR-3, 72 h
Protocol: as §1

[14] = pH 7.5, 37° C., read-out: t1/2 (pH 7.5), 50% taxol release
[15] = pH 9, 37° C., read-out: t1/2 (pH 9), 50% taxol release

SMILES: CC(=O)O[C@H]1C(=O)[C@@]2(C)[C@H]([C@H](OC(=O)c3ccccc3)[C@]3(O)C[C@H](OC(=O)[C@H](OC(=O)CS(=O)(=O)CC(=O)O)[C@@H](NC(=O)c4ccccc4)c4ccccc4)C(C)=C1C3(C)C)[C@]1(OC(C)=O)CO[C@@H]1C[C@@H]2O [drawing 7]
half-life [1, 14]: > 8.33 h
half-life [1, 15]: 0.5 h
solubility [2]: 1200 µg/mL (≈ 1180 µM)

SMILES: CC(=O)O[C@H]1C(=O)[C@@]2(C)[C@H]([C@H](OC(=O)c3ccccc3)[C@]3(O)C[C@H](OC(=O)[C@H](OC(=O)OCCS(=O)(=O)c4ccccc4)[C@@H](NC(=O)c4ccccc4)c4ccccc4)C(C)=C1C3(C)C)[C@]1(OC(C)=O)CO[C@@H]1C[C@@H]2O
half-life [1, 14]: > 8.33 h
half-life [1, 15]: 1.1 h

SMILES: CC(=O)O[C@H]1C(=O)[C@@]2(C)[C@H]([C@H](OC(=O)c3ccccc3)[C@]3(O)C[C@H](OC(=O)[C@H](OC(=O)CSCC(=O)O)[C@@H](NC(=O)c4ccccc4)c4ccccc4)C(C)=C1C3(C)C)[C@]1(OC(C)=O)CO[C@@H]1C[C@@H]2O [drawing 6]
half-life [1, 14]: > 8.33 h
half-life [1, 15]: 5 h
solubility [2]: 350 µg/mL (≈ 355 µM)

SMILES: CC(=O)O[C@H]1C(=O)[C@]2(C)[C@@H](OC(=O)CSCC(=O)O)C[C@H]3OC[C@@]3(OC(C)=O)[C@H]2[C@H](OC(=O)c2ccccc2)[C@]2(O)C[C@H](OC(=O)[C@H](OC(=O)CSCC(=O)O)[C@@H](NC(=O)c3ccccc3)c3ccccc3)C(C)=C1C2(C)C [Compound 12]
IC50 (Capan-1 (pancreatic); CAPAN-1, 72 h): < 1 nM
IC50 (NHDF (normal human skin); 72 h): 1000 nM
IC50 ([3]; Homo sapiens, 72 h): 100000 nM
IC50 ([4]; BT-549, 72 h): < 1 nM
IC50 ([5]; UCLA P-3, 72 h): 1 nM
IC50 ([6]; BALB/c3T3, 72 h): 10000 nM
IC50 ([7]; 72 h): 1000 nM
IC50 ([8]; 786-0, 72 h): 1000 nM
IC50 (L1210 (mouse leukaemia); L1210, 72 h): 1000 nM
IC50 ([9]; 72 h): 100000 nM
IC50 (SK (melanoma); 72 h): 10000 nM
IC50 (HT-29 (colon carcinoma); HT-29, 72 h): 100 nM
IC50 (SIHA (cervix carcinoma); SiHa, 72 h): 10000 nM
IC50 (H322 (lung carcinoma); NCI-H322, 72 h): 100 nM
IC50 (MCF-7 (breast carcinoma); MCF7, 72 h): 10000 nM
IC50 ([10]; MOLT-4, 72 h): < 1 nM
IC50 ([11]; 72 h): 100000 nM
IC50 ([12]; HL-60, 72 h): < 1 nM

SMILES: CC(=O)O[C@H]1C(=O)[C@@]2(C)[C@H]([C@H](OC(=O)c3ccccc3)[C@]3(O)C[C@H](OC(=O)[C@H](OC(=O)OCCSc4ccccc4)[C@@H](NC(=O)c4ccccc4)c4ccccc4)C(C)=C1C3(C)C)[C@]1(OC(C)=O)CO[C@@H]1C[C@@H]2O [Compound 7]
IC50 (Capan-1 (pancreatic); CAPAN-1, 72 h): < 1 nM
IC50 (NHDF (normal human skin); 72 h): 1000 nM
IC50 ([3]; Homo sapiens, 72 h): 100000 nM
IC50 ([4]; BT-549, 72 h): < 1 nM
IC50 ([5]; UCLA P-3, 72 h): < 1 nM
IC50 ([6]; BALB/c3T3, 72 h): 10000 nM
IC50 ([7]; 72 h): 1000 nM
IC50 ([8]; 786-0, 72 h): 10000 nM
IC50 (L1210 (mouse leukaemia); L1210, 72 h): 10000 nM
IC50 ([9]; 72 h): 100000 nM
IC50 [13]: < 1 nM
IC50 (SK (melanoma); 72 h): 10000 nM
IC50 (HT-29 (colon carcinoma); HT-29, 72 h): < 1 nM
IC50 (SIHA (cervix carcinoma); SiHa, 72 h): 10000 nM
IC50 (H322 (lung carcinoma); NCI-H322, 72 h): 1 nM
IC50 (MCF-7 (breast carcinoma); MCF7, 72 h): 10000 nM
IC50 ([10]; MOLT-4, 72 h): < 1 nM
IC50 ([11]; 72 h): 100000 nM
IC50 ([12]; HL-60, 72 h): < 1 nM

SMILES: CC(=O)O[C@H]1C(=O)[C@@]2(C)[C@H]([C@H](OC(=O)c3ccccc3)[C@]3(O)C[C@H](OC(=O)[C@H](OC(=O)OCCS(=O)(=O)c4ccc([N+](=O)[O-])cc4)[C@@H](NC(=O)c4ccccc4)c4ccccc4)C(C)=C1C3(C)C)[C@]1(OC(C)=O)CO[C@@H]1C[C@@H]2O [drawing 11]
half-life [1, 14]: > 8.33 h
half-life [1, 15]: 0.117 h

SMILES: CC(=O)O[C@H]1C(=O)[C@]2(C)[C@@H](OC(=O)COCC(=O)O)C[C@H]3OC[C@@]3(OC(C)=O)[C@H]2[C@H](OC(=O)c2ccccc2)[C@]2(O)C[C@H](OC(=O)[C@H](OC(=O)COCC(=O)O)[C@@H](NC(=O)c3ccccc3)c3ccccc3)C(C)=C1C2(C)C [Compound 11]
IC50 (Capan-1 (pancreatic); Capan-1, 72 hours, read-out: IC50): < 1 nM
IC50 (NHDF (normal human skin); 72 hours, read-out: IC50): 1000 nM
IC50 ([3]; CHO, normal human mammary, 72 hours, read-out: IC50): 100000 nM
IC50 ([4]; BT-549, 72 hours, read-out: IC50): < 1 nM
IC50 ([5]; UCLA-P-3, 72 hours, read-out: IC50): 1 nM
IC50 ([6]; BALB/c3T3, BALB/c 3T3, 72 hours, read-out: IC50): 1000 nM
IC50 ([7]; PC-3, 72 hours, read-out: IC50): 1000 nM
IC50 ([8]; 786-0, 72 hours, read-out: IC50): 1000 nM
IC50 (L1210 (mouse leukaemia); L1210, 72 hours, read-out: IC50): 1000 nM
IC50 ([9]; CHO, Chinese hamster ovary, 72 hours, read-out: IC50): 100000 nM
IC50 (SK (melanoma); SK melanoma, 72 hours, read-out: IC50): 10000 nM
IC50 (HT-29 (colon carcinoma); HT-29, 72 hours, read-out: IC50): < 1 nM
IC50 (SIHA (cervix carcinoma); SIHA, 72 hours, read-out: IC50): 10000 nM
IC50 (H322 (lung carcinoma); NCI-H322, H322, 72 hours, read-out: IC50): 1 nM
IC50 (MCF-7 (breast carcinoma); MCF7, CF-7 / MCF-7, 72 hours, read-out: IC50): 10000 nM
IC50 ([10]; MOLT-4, 72 hours, read-out: IC50): < 1 nM
IC50 ([11]; RPMI-7666, 72 hours, read-out: IC50): 100000 nM
IC50 ([12]; HL-60, 72 hours, read-out: IC50): < 1 nM

SMILES: CC(=O)O[C@H]1C(=O)[C@@]2(C)[C@H]([C@H](OC(=O)c3ccccc3)[C@]3(O)C[C@H](OC(=O)[C@H](OC(=O)OCCS(=O)(=O)c4ccc(N)cc4)[C@@H](NC(=O)c4ccccc4)c4ccccc4)C(C)=C1C3(C)C)[C@]1(OC(C)=O)CO[C@@H]1C[C@@H]2O [drawing 12]
half-life [1, 14]: > 8.33 h
half-life [1, 15]: 1.68 h

SMILES: CC(=O)O[C@H]1C(=O)[C@@]2(C)[C@H]([C@H](OC(=O)c3ccccc3)[C@]3(O)C[C@H](OC(=O)[C@H](OC(=O)COCC(=O)O)[C@@H](NC(=O)c4ccccc4)c4ccccc4)C(C)=C1C3(C)C)[C@]1(OC(C)=O)CO[C@@H]1C[C@@H]2O [drawing 5]
half-life [1, 14]: > 8.33 h
half-life [1, 15]: 1.83 h
solubility [2]: 840 µg/mL (≈ 866 µM)

SMILES: CC(=O)O[C@H]1C(=O)[C@]2(C)[C@@H](OC(=O)CSCC(=O)O)C[C@H]3OC[C@@]3(OC(C)=O)[C@H]2[C@H](OC(=O)c2ccccc2)[C@]2(O)C[C@H](OC(=O)[C@H](OC(=O)CSCC(=O)O)[C@@H](NC(=O)c3ccccc3)c3ccccc3)C(C)=C1C2(C)C [drawing 14]
solubility [2]: 460 µg/mL (≈ 411 µM)

SMILES: CC(=O)O[C@H]1C(=O)[C@@]2(C)[C@H]([C@H](OC(=O)c3ccccc3)[C@]3(O)C[C@H](OC(=O)[C@H](OC(=O)OCCS(=O)(=O)c4ccc(N)cc4)[C@@H](NC(=O)c4ccccc4)c4ccccc4)C(C)=C1C3(C)C)[C@]1(OC(C)=O)CO[C@@H]1C[C@@H]2O [Compound 10]
IC50 (Capan-1 (pancreatic); CAPAN-1, 72 h): < 1 nM
IC50 (NHDF (normal human skin); 72 h): 1000 nM
IC50 ([3]; Homo sapiens, 72 h): 100000 nM
IC50 ([4]; BT-549, 72 h): 100 nM
IC50 ([5]; UCLA P-3, 72 h): < 1 nM
IC50 ([6]; BALB/c3T3, 72 h): 10000 nM
IC50 ([7]; 72 h): 1000 nM
IC50 ([8]; 786-0, 72 h): 1000 nM
IC50 (L1210 (mouse leukaemia); L1210, 72 h): 10000 nM
IC50 ([9]; 72 h): 100000 nM
IC50 [13]: < 1 nM
IC50 (SK (melanoma); 72 h): 10000 nM
IC50 (HT-29 (colon carcinoma); HT-29, 72 h): < 1 nM
IC50 (SIHA (cervix carcinoma); SiHa, 72 h): 10000 nM
IC50 (H322 (lung carcinoma); NCI-H322, 72 h): 10 nM
IC50 (MCF-7 (breast carcinoma); MCF7, 72 h): 10000 nM
IC50 ([10]; MOLT-4, 72 h): < 1 nM
IC50 ([11]; 72 h): 100000 nM
IC50 ([12]; HL-60, 72 h): < 1 nM

solubility [2]: 500 µg/mL (≈ 460 µM)
SMILES: CC(=O)O[C@H]1C(=O)[C@]2(C)[C@@H](OC(=O)COCC(=O)O)C[C@H]3OC[C@@]3(OC(C)=O)[C@H]2[C@H](OC(=O)c2ccccc2)[C@]2(O)C[C@H](OC(=O)[C@H](OC(=O)COCC(=O)O)[C@@H](NC(=O)c3ccccc3)c3ccccc3)C(C)=C1C2(C)C [drawing 13]
